Values of other authors as cited in patent publication US11471437B2, “Compositions and methods for treating cannabinoid hyperemesis syndrome with a cannabinoid receptor antagonist” (Opiant Pharmaceuticals, Inc., priority 2019, dated 2022).

Assays:
[1] = cited from earlier work
CB1 receptor [2] = molecular target: T1, CB1 receptor (Homo sapiens, UniProt P21554); conditions: cited from earlier work
CB1 receptor [3] = molecular target: T1, CB1 receptor; parameters: host or cells: human volunteers (in vivo); conditions: oral administration, normal volunteers; cited from earlier work
[4] = oral formulation for obesity and smoking cessation; cited from earlier work

T1 sequence (P21554 whole entry): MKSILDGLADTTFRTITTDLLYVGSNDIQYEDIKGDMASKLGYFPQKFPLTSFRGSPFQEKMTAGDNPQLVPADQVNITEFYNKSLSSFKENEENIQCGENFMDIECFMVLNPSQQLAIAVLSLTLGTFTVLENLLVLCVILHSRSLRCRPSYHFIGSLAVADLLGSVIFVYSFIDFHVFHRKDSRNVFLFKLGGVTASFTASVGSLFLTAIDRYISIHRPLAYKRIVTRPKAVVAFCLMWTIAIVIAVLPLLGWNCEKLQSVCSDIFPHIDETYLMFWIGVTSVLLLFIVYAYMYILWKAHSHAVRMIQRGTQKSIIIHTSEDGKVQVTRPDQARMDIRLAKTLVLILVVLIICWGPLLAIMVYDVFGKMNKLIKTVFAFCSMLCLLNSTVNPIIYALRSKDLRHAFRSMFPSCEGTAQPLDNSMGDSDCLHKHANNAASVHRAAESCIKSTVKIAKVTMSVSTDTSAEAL

SMILES	log P [1]	Potency and selectivity for CB1 (CB1 receptor [2])	Prevention (block) of pharmacological effects of smoked or inhaled THC (CB1 receptor [3])	Side effects [4]
CS(=O)(=O)N(c1cc(F)cc(F)c1)C1CN(C(c2ccc(Cl)cc2)c2ccc(Cl)cc2)C1 (racemic) [drinabant, (±)-N-{1-[bis(4-chlorophenyl)methyl]-3-azetidinyl}-N-(3,5-difluorophenyl)methanesulfonamide]	high	potent and selective for CB1	can prevent (that is, block) some of the pharmacological effects of smoked or inhaled THC	–
Cc1c(C(=O)NN2CCCCC2)nn(-c2ccc(Cl)cc2Cl)c1-c1ccc(Cl)cc1 [Rimonabant, 5-(4-chlorophenyl)-1-(2,4-dichloro-phenyl)-4-methyl-N-(piperidin-1-yl)-1H-pyrazole-3-carboxamide]	–	–	–	concerning side effects including psychiatric effects such as depression and mood alterations
CCc1c(C(=O)NN2CCCCC2)nn(-c2ccc(Cl)cc2Cl)c1-c1ccc(Br)cc1 [surinabant]	–	–	can prevent (that is, block) some of the pharmacological effects of smoked or inhaled THC	–
